The structures appear in SMILES notation. Read-outs that look alike come from different tables or passages of the source.

The subject of one data set is porcine model. As to conditions: pig, in vivo. On the procedure:
Animals tested were of the porcine species from the breed Yorkshire Cross. The animals underwent surgery to place two (2) CVL catheters, 1 for infusion and 1 for plasma collection. Each animal received ˜1 L of lavage solution. The animals were allowed to recover and stabilize. Once the animals were awake and mobile, the animals were infused with 50 mcg/mL for 30 minutes.

The conditions of data set [1]: cited from earlier work.
Data set [2] in a line: Plasma concentration of diclofenac after local lavage delivery to the lungs in a porcine model (LC/MS). It counts as in vivo, porcine (Yorkshire Cross). From the text: Each animal received ˜1 L of lavage solution. The animals were allowed to recover and stabilize. […] Spectra were compared to the validated protocol and standard curve generated for the study.

With `C[C@@H]1C[C@H]2[C@@H]3CCC4=CC(=O)C=C[C@]4(C)[C@@]3(F)[C@@H](O)C[C@]2(C)[C@@]1(O)C(=O)COP(=O)([O-])[O-].[Na+].[Na+]` [Dexamethasone sodium phosphate, disodium; [2-[(8S,9R,10S,11S,13S,14S,16R, 17R)-9-fluoro-11,17-dihydroxy-10,13,16-trimethyl-3-oxo-6,7,8, 11, 12, 14, 15, 16-octahydrocyclopenta[a]phenanthren-17-yl]-2-oxoethyl] phosphate], in the data set on porcine model, the tolerability entry was “well tolerated”. Besides, in data set [1] (water), the solubility in water was 100 to 1000 mg/mL and the “solubility in water (in words)” value is reported as “freely soluble”.
On to `O=C(O)Cc1ccccc1Nc1c(Cl)cccc1Cl` [Diclofenac, 2-[2-(2,6-dichloroanilino)phenyl]acetic acid], for which, in the data set on porcine model, the adverse events result is given as “did not have any adverse events”, the clinical observations result is listed as “no abnormal clinical observations” and the lung tissue damage entry is recorded as “no signs of lung tissue damage”. Moreover, in data set [2] (local lung delivery at 50 mcg/mL), the “time of peak plasma concentration post-lung infusion” value is 5 min. For the same compound, the “plasma Cmax as percent of the plasma Cmax resulting from systemic administration” value in data set [2] (local vs systemic administration) was “less than 0.05%”. Besides, the “Plasma Concentration (ng/mL) by Time (min): 5 min” value in data set [2] (swine, local lung administration 50 mcg/mL, 5 min, animal 24P0133) is reported as 3430 ng/mL. Also, the “Plasma Concentration (ng/mL) by Time (min): 15 min” value in data set [2] (swine, local lung administration 50 mcg/mL, 15 min, animal 24P0133) came out at 3050 ng/mL. Moreover, the “Plasma Concentration (ng/mL) by Time (min): 30 min” value in data set [2] (swine, local lung administration 50 mcg/mL, 30 min, animal 24P0133) is listed as 2410 ng/mL. Besides, in data set [2] (swine, local lung administration 50 mcg/mL, ~1 L lavage solution, 0 min (baseline), animal 24P0133), the “Plasma Concentration (ng/mL) by Time (min): 0 min” value is “BLQ”.
Consider `O=C(O)Cc1ccccc1Nc1c(Cl)cccc1Cl` [Diclofenac sodium], for which, in data set [1] (water at 25° C.), the “solubility in water (in words)” value is “sparingly soluble”.

The values above are taken from patent US20240399118A1, “INTRALUMINAL LOCAL DRUG DELIVERY” (Isola Therapeutics, Inc., priority 2023, published 2024).
